Assays:
[1] = molecular target: T1, Adenosine receptor A3 (Homo sapiens, UniProt P0DMS8); type: cell membranes, CHO-K1, Membrane; settings: cho-k1;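 note: radioligand binding assay with AB-MECA serving as the labeled ligand; in other assays of this panel Not Active means under 50% inhibition at 10 µM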
T1 sequence (P0DMS8 whole entry): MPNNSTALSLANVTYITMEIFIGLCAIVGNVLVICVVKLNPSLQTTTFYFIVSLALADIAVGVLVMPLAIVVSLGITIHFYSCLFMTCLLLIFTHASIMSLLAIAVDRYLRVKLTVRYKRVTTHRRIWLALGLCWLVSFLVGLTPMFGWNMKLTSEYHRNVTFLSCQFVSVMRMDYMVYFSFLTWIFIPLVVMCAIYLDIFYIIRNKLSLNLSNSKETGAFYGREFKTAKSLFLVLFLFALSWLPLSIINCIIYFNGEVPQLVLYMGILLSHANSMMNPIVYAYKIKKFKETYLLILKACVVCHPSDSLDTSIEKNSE

[2] = DRUGMATRIX: Sodium/nucleoside co-transporter radioligand binding (ligand: nitrobenzylthioinosine); type: cell membranes, Cavia porcellus, Dunkin-Hartley, Cerebral cortex, Membrane; settings: Not Active = under 50% inhibition at 10 µM
[3] = DRUGMATRIX: GABAA, Chloride Channel, TBOB radioligand binding (ligand: [3H] TBOB); type: cell membranes, Rattus norvegicus, Wistar, Cerebral cortex, Membrane; settings: Not Active = under 50% inhibition at 10 µM
[4] = molecular target: 5-hydroxytryptamine receptor 6 (Homo sapiens, UniProt P50406); type: cell membranes, HeLa, Membrane; settings: hela; note: in other assays of this panel Not Active means under 50% inhibition at 10 µM
[5] = molecular target: Melanocortin receptor 5 (Homo sapiens, UniProt P33032); type: cell membranes, HEK293, Membrane; settings: hek293; note: in other assays of this panel Not Active means under 50% inhibition at 10 µM
[6] = molecular target: T2, Alpha-2A adrenergic receptor (Homo sapiens, UniProt P08913); type: cell membranes, Sf9, Membrane; settings: sf9; note: in other assays of this panel Not Active means under 50% inhibition at 10 µM
T2 sequence (P08913 whole entry): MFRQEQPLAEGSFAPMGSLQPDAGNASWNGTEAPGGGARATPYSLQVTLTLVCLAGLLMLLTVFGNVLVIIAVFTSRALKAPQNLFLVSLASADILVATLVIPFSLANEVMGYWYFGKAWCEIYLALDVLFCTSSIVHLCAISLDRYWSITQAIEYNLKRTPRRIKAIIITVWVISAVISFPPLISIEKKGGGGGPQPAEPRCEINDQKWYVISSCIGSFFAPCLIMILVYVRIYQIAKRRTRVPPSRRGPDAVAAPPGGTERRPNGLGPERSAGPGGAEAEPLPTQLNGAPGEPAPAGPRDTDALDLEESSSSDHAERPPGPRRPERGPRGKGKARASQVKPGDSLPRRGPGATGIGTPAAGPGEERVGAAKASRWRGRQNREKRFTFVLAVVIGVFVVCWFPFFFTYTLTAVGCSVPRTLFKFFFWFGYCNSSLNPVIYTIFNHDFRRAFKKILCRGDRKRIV

[7] = molecular target: T3, Neuropeptide Y receptor type 1 (Homo sapiens, UniProt P25929); type: cell membranes, Membrane; settings: sk-n-mc; note: in other assays of this panel Not Active means under 50% inhibition at 10 µM
T3 sequence (P25929 whole entry): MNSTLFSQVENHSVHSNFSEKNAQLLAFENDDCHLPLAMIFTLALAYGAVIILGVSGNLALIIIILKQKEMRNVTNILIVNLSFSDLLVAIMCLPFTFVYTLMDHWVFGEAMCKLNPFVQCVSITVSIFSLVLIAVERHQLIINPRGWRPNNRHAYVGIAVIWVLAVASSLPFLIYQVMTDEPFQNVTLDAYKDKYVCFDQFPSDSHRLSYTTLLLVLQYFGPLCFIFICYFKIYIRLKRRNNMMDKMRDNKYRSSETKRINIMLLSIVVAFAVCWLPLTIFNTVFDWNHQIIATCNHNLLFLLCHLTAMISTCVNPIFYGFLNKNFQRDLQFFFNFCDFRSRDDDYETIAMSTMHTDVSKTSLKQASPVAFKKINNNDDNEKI

Chain of 5-hydroxytryptamine receptor 6 (P50406 whole entry): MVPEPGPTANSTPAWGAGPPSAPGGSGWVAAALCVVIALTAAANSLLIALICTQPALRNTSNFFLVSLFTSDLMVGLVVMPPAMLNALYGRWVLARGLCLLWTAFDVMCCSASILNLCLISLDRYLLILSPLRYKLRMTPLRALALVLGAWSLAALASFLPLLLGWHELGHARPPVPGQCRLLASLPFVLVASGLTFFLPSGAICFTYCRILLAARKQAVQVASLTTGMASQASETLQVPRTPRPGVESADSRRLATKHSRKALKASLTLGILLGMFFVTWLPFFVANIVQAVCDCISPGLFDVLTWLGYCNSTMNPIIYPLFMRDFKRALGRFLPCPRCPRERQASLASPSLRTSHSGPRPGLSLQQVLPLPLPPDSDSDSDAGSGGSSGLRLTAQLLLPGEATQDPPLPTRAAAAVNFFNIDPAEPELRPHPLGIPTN
Chain of Melanocortin receptor 5 (P33032 whole entry): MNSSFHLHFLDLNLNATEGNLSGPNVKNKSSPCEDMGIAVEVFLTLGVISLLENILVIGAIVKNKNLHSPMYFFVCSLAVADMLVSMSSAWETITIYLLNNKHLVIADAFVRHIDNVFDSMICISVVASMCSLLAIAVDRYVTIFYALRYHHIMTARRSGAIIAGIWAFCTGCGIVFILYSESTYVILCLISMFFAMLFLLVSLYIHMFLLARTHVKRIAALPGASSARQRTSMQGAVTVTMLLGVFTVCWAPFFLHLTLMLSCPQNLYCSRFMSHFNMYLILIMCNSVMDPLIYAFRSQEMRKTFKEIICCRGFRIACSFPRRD

POLYVINYL ALCOHOL
Not Active: IC50 [1] | Ki [1] | IC50 [2] | Ki [2] | IC50 [3] | Ki [3] | IC50 [4] | Ki [4] | IC50 [5] | Ki [5] | IC50 [6] | Ki [6] | IC50 [7] | Ki [7]

From ChEMBL document CHEMBL1909046, “DrugMatrix in vitro pharmacology data”
